Our source for the MIC values is patent US5593984A, “Cephalosporin derivatives” (Yuhan Corporation, priority 1992, dated 1997).

≈ marks a conversion by molar mass, not a printed value. A value given as a limit tells only on which side of the number the result lay.

Common to all, as to assay type: cell-based
One test concerns Ent. aerogenes IFO 12979. Put plainly: MIC by agar dilution, Ent. aerogenes IFO 12979. As to conditions: Klebsiella aerogenes, IFO12979, 17 h, Mueller-Hinton agar, read-out: Minimal Inhibitory Concentration (MIC). On the procedure: (§1) These MIC values were determined by agar dilution method: that is, two-fold dilutions of each of the test compounds were made and dispersed in a Mueller-Hinton agar medium; standard test strain which had the 10^6 CFU (Colony Forming Unit) per ml was inoculated on the medium with microplanter (Toyo, Japan), and incubated at 35°-37° C. for 17±1 hours. The structures of Ceftazidime (CAZ) and Cefotaxime (CTX) which are used as control compounds are as follows: [drawing 12]

In test [1] the test system is Ps. aeruginosa ATCC 10145. Nature of the test: MIC by agar dilution, Ps. aeruginosa ATCC 10145. As to conditions: Pseudomonas aeruginosa, ATCC10145, 17 h, Mueller-Hinton agar, read-out: Minimal Inhibitory Concentration (MIC). On the procedure: as §1
For another test, the system named is Ent. cloacae IFO 13535. Put plainly: MIC by agar dilution, Ent. cloacae IFO 13535. To be noted: Enterobacter cloacae, IFO13535, 17 h; Ent. cloacae IFO 13535; agar dilution, Mueller-Hinton agar; read-out: Minimal Inhibitory Concentration (MIC). On the procedure:
as §1

The subject of a further test is E. coli No. 29. Nature of the test: MIC by agar dilution, E. coli No. 29. To be noted: Escherichia coli, 17 h; E. coli No. 29; agar dilution, Mueller-Hinton agar; read-out: Minimal Inhibitory Concentration (MIC). On the procedure: as §1
Another test deals with Staph. aureus C-57. Put plainly: MIC by agar dilution, Staph. aureus C-57. To be noted: Staphylococcus aureus, C57, 17 h, Mueller-Hinton agar, read-out: Minimal Inhibitory Concentration (MIC). On the procedure: as §1
Another test relates to Ps. aeruginosa DY-2. Put plainly: MIC by agar dilution, Ps. aeruginosa DY-2. To be noted: Pseudomonas aeruginosa, DY2, 17 h; Ps. aeruginosa DY-2; agar dilution, Mueller-Hinton agar; read-out: Minimal Inhibitory Concentration (MIC). On the procedure: as §1
The next test concerns P. vulgaris NCTC 8313. Put plainly: MIC by agar dilution, P. vulgaris NCTC 8313. To be noted: Proteus vulgaris, NCTC8313, 17 h; P. vulgaris NCTC 8313; agar dilution, Mueller-Hinton agar; read-out: Minimal Inhibitory Concentration (MIC). On the procedure:
as §1

The subject of test [2] is S. epidermidis ATCC 12228. Nature of the test: MIC by agar dilution, S. epidermidis ATCC 12228. As to conditions: Staphylococcus epidermidis, ATCC12228, 17 h; S. epidermidis ATCC 12228; agar dilution, Mueller-Hinton agar; read-out: Minimal Inhibitory Concentration (MIC). On the procedure: as §1
The test system of test [3] is Ps. aeruginosa NCTC 10490. Put plainly: MIC by agar dilution, Ps. aeruginosa NCTC 10490. As to conditions: Pseudomonas aeruginosa, NCTC10490, 17 h, Mueller-Hinton agar, read-out: Minimal Inhibitory Concentration (MIC). On the procedure: as §1
The next test deals with Staph. aureus ATCC 6538P. Nature of the test: MIC by agar dilution, Staph. aureus ATCC 6538P. To be noted: Staphylococcus aureus, ATCC6538P, 17 h; Staph. aureus ATCC 6538P; agar dilution, Mueller-Hinton agar; read-out: Minimal Inhibitory Concentration (MIC). On the procedure:
as §1

The subject of the next test is M. morganii DY-1. Nature of the test: MIC by agar dilution, M. morganii DY-1. As to conditions: Morganella morganii, DY1, 17 h; M. morganii DY-1; agar dilution, Mueller-Hinton agar; read-out: Minimal Inhibitory Concentration (MIC). On the procedure: as §1
In test [4] the test system is Ser. marcescens IFO 12648. Put plainly: MIC by agar dilution, Ser. marcescens IFO 12648. As to conditions: Serratia marcescens, IFO12648, 17 h; Ser. marcescens IFO 12648; agar dilution, Mueller-Hinton agar; read-out: Minimal Inhibitory Concentration (MIC). On the procedure: as §1
The test system of the next test is K. pneumoniae NCTC 9632. Nature of the test: MIC by agar dilution, K. pneumoniae NCTC 9632. As to conditions: Klebsiella pneumoniae, NCTC9632, 17 h; K. pneumoniae NCTC 9632; agar dilution, Mueller-Hinton agar; read-out: Minimal Inhibitory Concentration (MIC). On the procedure:
as §1

The next test relates to E. coli NIHJ JC-2. Nature of the test: MIC by agar dilution, E. coli NIHJ JC-2. As to conditions: Escherichia coli, NIHJJC2, 17 h; E. coli NIHJ JC-2; agar dilution, Mueller-Hinton agar; read-out: Minimal Inhibitory Concentration (MIC). On the procedure:
as §1

The test system of the next test is Staph. aureus Smith. Put plainly: MIC by agar dilution, Staph. aureus Smith. As to conditions: Staphylococcus aureus, 17 h, Mueller-Hinton agar, read-out: Minimal Inhibitory Concentration (MIC). On the procedure:
as §1

Another test has as its system Staph. aureus C-5113. Nature of the test: MIC by agar dilution, Staph. aureus C-5113. To be noted: Staphylococcus aureus, C5113, 17 h, Mueller-Hinton agar, read-out: Minimal Inhibitory Concentration (MIC). On the procedure:
as §1

A further test deals with Staph. aureus C-5216. Nature of the test: MIC by agar dilution, Staph. aureus C-5216. To be noted: Staphylococcus aureus, C5216, 17 h, Mueller-Hinton agar, read-out: Minimal Inhibitory Concentration (MIC). On the procedure: as §1
The next test deals with E. coli DY-1. Nature of the test: MIC by agar dilution, E. coli DY-1. As to conditions: Escherichia coli, DY1, 17 h; E. coli DY-1; agar dilution, Mueller-Hinton agar; read-out: Minimal Inhibitory Concentration (MIC). On the procedure:
as §1

The test system of another test is B. subtilis ATCC 6633. Put plainly: MIC by agar dilution, B. subtilis ATCC 6633. To be noted: Bacillus subtilis, ATCC6633, 17 h; B. subtilis ATCC 6633; agar dilution, Mueller-Hinton agar; read-out: Minimal Inhibitory Concentration (MIC). On the procedure: as §1
The test system of another test is Prov. stuartii IFO 12930. Nature of the test: MIC by agar dilution, Prov. stuartii IFO 12930. To be noted: Providencia stuartii, IFO12930, 17 h, Mueller-Hinton agar, read-out: Minimal Inhibitory Concentration (MIC). On the procedure:
as §1

In the case of `CON=C(C(=O)NC1C(=O)N2C(C(=O)[O-])=C(C[n+]3ccn4c(C#N)ccc4c3)CSC12)c1csc(N)n1` (stereo not drawn) [Ex. 13, 7-β-[(Z)-2-(2-aminothiazol-4-yl)-2-methoxyiminoacetamido]-3-(6-cyanopyrrolo[1,2-a]pyrazinium-2-yl)methyl-3-cephem-4-carboxylate], the MIC in the test with Ent. aerogenes IFO 12979 is 0.012 µg/mL (≈ 0.0223 µM); in [1], 0.78 µg/mL (≈ 1.45 µM); with Ent. cloacae IFO 13535, 0.05 µg/mL (≈ 0.0928 µM); in the test with E. coli No. 29, 0.012 µg/mL (≈ 0.0223 µM); in the test with Staph. aureus C-57, 25 µg/mL (≈ 46.4 µM); in the test on Ps. aeruginosa DY-2, 3.13 µg/mL (≈ 5.81 µM). The MIC in the test on P. vulgaris NCTC 8313 is no more than 0.006 µg/mL; in test [2], 0.1 µg/mL (≈ 0.186 µM); in [3], 0.39 µg/mL (≈ 0.724 µM); with Staph. aureus ATCC 6538P, 0.39 µg/mL (≈ 0.724 µM); in the test on M. morganii DY-1, 0.025 µg/mL (≈ 0.0464 µM); in test [4], 0.012 µg/mL (≈ 0.0223 µM). Besides, the MIC in the test with K. pneumoniae NCTC 9632 amounted to 0.025 µg/mL (≈ 0.0464 µM); in the test with E. coli NIHJ JC-2 it was 0.012 µg/mL (≈ 0.0223 µM); with Staph. aureus Smith, 1.56 µg/mL (≈ 2.9 µM); in the test with Staph. aureus C-5113, 0.78 µg/mL (≈ 1.45 µM); in the test on Staph. aureus C-5216, 0.78 µg/mL (≈ 1.45 µM); in the test on E. coli DY-1 it was 0.012 µg/mL (≈ 0.0223 µM). Further, the MIC is 0.2 µg/mL (≈ 0.371 µM) in the test on B. subtilis ATCC 6633 and no more than 0.006 µg/mL in the test on Prov. stuartii IFO 12930.

In the case of `CCON=C(C(=O)NC1C(=O)N2C(C(=O)[O-])=C(C[n+]3ccn4c(C=O)ccc4c3)CSC12)c1csc(N)n1` (stereo not drawn) [Ex. 26, 7-β-[(Z)-2-(2-aminothiazol-4-yl)2-ethoxyiminoacetamido]-3-(6-formylpyrrolo[1,2-a]pyrazinium-2-yl)methyl-3-cephem-4-carboxylate], the MIC in the test with Ent. aerogenes IFO 12979 turned out to be 0.05 µg/mL (≈ 0.09 µM); in test [1], 6.25 µg/mL (≈ 11.2 µM); in the test on Ent. cloacae IFO 13535, 3.13 µg/mL (≈ 5.63 µM); in the test with E. coli No. 29, 0.05 µg/mL (≈ 0.09 µM); in the test on Staph. aureus C-57, 100 µg/mL (≈ 180 µM); with Ps. aeruginosa DY-2, 12.5 µg/mL (≈ 22.5 µM). For the same compound, the MIC in the test on P. vulgaris NCTC 8313 was determined as 0.025 µg/mL (≈ 0.045 µM); in [2], 0.1 µg/mL (≈ 0.18 µM); in test [3], 1.56 µg/mL (≈ 2.81 µM); in the test on Staph. aureus ATCC 6538P it was 1.56 µg/mL (≈ 2.81 µM); with M. morganii DY-1, 0.2 µg/mL (≈ 0.36 µM); in [4], 0.1 µg/mL (≈ 0.18 µM). Moreover, the MIC in the test on K. pneumoniae NCTC 9632 came out at 0.2 µg/mL (≈ 0.36 µM); in the test with E. coli NIHJ JC-2 it was 0.1 µg/mL (≈ 0.18 µM); with Staph. aureus Smith, 3.13 µg/mL (≈ 5.63 µM); with Staph. aureus C-5113, 3.13 µg/mL (≈ 5.63 µM); in the test on Staph. aureus C-5216, 3.13 µg/mL (≈ 5.63 µM); in the test on E. coli DY-1 it was 0.05 µg/mL (≈ 0.09 µM). For the same compound, the MIC with B. subtilis ATCC 6633 came out at 0.39 µg/mL (≈ 0.702 µM); in the test on Prov. stuartii IFO 12930, 0.05 µg/mL (≈ 0.09 µM).

As to `CON=C(C(=O)NC1C(=O)N2C(C(=O)[O-])=C(C[n+]3ccn4ccc(CO)c4c3)CSC12)c1csc(N)n1` (stereo not drawn) [Ex. 30, 7-β-[(Z)-2-(2-aminothiazol-4-yl)2-methoxyiminoacetamido]-3-(8-hydroxymethylpyrrolo[1,2-a]pyrazinium-2-yl)methyl-3-cephem-4-carboxylate], the MIC is no more than 0.006 µg/mL with Ent. aerogenes IFO 12979; 0.39 µg/mL (≈ 0.717 µM) in test [1]; 0.05 µg/mL (≈ 0.092 µM) with Ent. cloacae IFO 13535; no more than 0.006 µg/mL in the test on E. coli No. 29; 50 µg/mL (≈ 92 µM) in the test with Staph. aureus C-57; 3.13 µg/mL (≈ 5.76 µM) in the test on Ps. aeruginosa DY-2. The MIC in the test with P. vulgaris NCTC 8313 turned out to be 0.012 µg/mL (≈ 0.0221 µM); in test [2] it was 0.05 µg/mL (≈ 0.092 µM); in test [3], 0.1 µg/mL (≈ 0.184 µM); in the test with Staph. aureus ATCC 6538P it was 0.2 µg/mL (≈ 0.368 µM); in the test with M. morganii DY-1 it was 0.012 µg/mL (≈ 0.0221 µM); in test [4] it was 0.012 µg/mL (≈ 0.0221 µM). Further, the MIC in the test with K. pneumoniae NCTC 9632 was 0.012 µg/mL (≈ 0.0221 µM); in the test with E. coli NIHJ JC-2, no more than 0.006 µg/mL; with Staph. aureus Smith, 0.78 µg/mL (≈ 1.43 µM); with Staph. aureus C-5113, 3.13 µg/mL (≈ 5.76 µM); in the test with Staph. aureus C-5216 it was 0.78 µg/mL (≈ 1.43 µM); in the test with E. coli DY-1, no more than 0.006 µg/mL. For the same compound, the MIC is 0.1 µg/mL (≈ 0.184 µM) in the test with B. subtilis ATCC 6633 and no more than 0.006 µg/mL with Prov. stuartii IFO 12930.
